Data reported in US20090035306A1 (KALYPSYS, INC., priority 2006, published 2009).
pEC50: −log10 of the molar value.

target: T1, human TGR5 (Homo sapiens, UniProt Q8TDU6); assay: cAMP production assay in HEK293 cells stably expressing TGR5 (LANCE TR-FRET); assay type: cell-based; details: 30 minutes stimulation, read-out: cAMP Production in 293-TGR5 Cells EC50
T1 construct: expressed in transfected cells
T1 sequence (Q8TDU6 1-330): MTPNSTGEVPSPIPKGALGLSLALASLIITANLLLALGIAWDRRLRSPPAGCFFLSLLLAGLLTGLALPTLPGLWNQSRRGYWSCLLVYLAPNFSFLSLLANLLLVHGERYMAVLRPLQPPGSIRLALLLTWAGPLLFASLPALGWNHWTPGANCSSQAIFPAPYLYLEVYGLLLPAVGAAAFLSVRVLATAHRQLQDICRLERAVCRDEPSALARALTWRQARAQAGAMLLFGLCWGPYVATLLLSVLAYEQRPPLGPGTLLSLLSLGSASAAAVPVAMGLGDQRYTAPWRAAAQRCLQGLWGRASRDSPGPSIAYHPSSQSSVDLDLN
Description: HEK293 cells stably expressing TGR5 (HEK293-TGR5) were established by stably transfecting HEK-293 cells with an expression vector (pcDNA 3.1, Invetrogen) inserted with human TGR5 cDNA using Fugene6 (Roche, Indianapolis, Ind.) according to conventional methods. Cells were grown in DMEM (invitrogen, Carlsbad, Calif.) supplemented with 10% FBS, 1% penicillin/streptomycin under geneticin selection. The presence of TGR5 transcripts in these cells was confirmed using branched DNA (bDNA, Genospectra, Inc., Fremont Calif.) following the manufacturer's protocol and using specific probes for human TGR5. cAMP production assay was performed in high throughput 1536 well format using LANCE cAMP detection kit (Perkin Elmer Inc., Boston, Mass.) according to the manufacturer's protocol. Briefly, HEK293-TGR5 cells were harvested using non-enzymatic cell dissociation buffer (Invitrogen, Carlsbad, Calif.) and suspended in DMEM supplemented with 0.1% FBS at a density of 800,000 cells/ml. Alexa antibody was added to the cell suspension, and 4 ul of the mixture was dispensed in white opaque tissue culture treated Greiner 1536 well plates (USA Scientific, Inc., Ocala, Fla.). After an overnight incubation at 37 C in an atmosphere of 10% CO2 and 95% humidity, 1 ul of 5 mM IBMX (Sigma, St. Louis, Mo.) solution in DMEM was dispensed for a final concentration of 1 mM. Cells were then stimulated with test compounds for 30 minutes, after which time 5 ul of detection reagent was added and incubated for 1-7 hrs at room temperature. TR-FRET signal was detected using the Viewlux (Perkin Elmer Inc., Boston Mass.). EC50 values were determined using Graph Pad Prizm analysis (GraphPad Software, Inc). The EC50 values for a wide range of bile acids generated from this assay were in agreement with the values published in the scientific literature. […] The symbol (+) denotes an EC50 value of ≦10 μM while the symbol (−) denotes an EC50 value of >10 μM (see Table 1).

COc1cc2nc(-c3ccc(F)cc3)n(NCc3ccc(Br)cc3)c(=O)c2cc1OC [Example 83, 3-(4-bromobenzylamino)-2-(4-fluorophenyl)-6,7-dimethoxy-quinazolin-4(3H)-one] and Cc1ccc2c(=O)n(NCc3ccc(Br)cc3)c(-c3ccc(F)cc3)nc2c1 [Example 81, 3-(4-bromobenzylamino)-2-(4-fluorophenyl)-7-methylquinazolin-4(3H)-one] cannot be ordered by pEC50: < 5.00 for the first, ≥ 5.00 for the second.

CCN(Cc1ccc(Br)cc1)n1c(-c2ccc(F)cc2)nc2ccccc2c1=O [Example 93, 3-((4-bromobenzyl)(ethyl)amino)-2-(4-fluorophenyl)quinazolin-4(3H)-one] and O=c1c2ccccc2nc(-c2ccc(F)cc2)n1NCCc1ccc(Br)cc1 [Example 85, 3-(4-bromophenethylamino)-2-(4-fluorophenyl)quinazolin-4(3H)-one] cannot be ordered by pEC50: ≥ 5.00 for the first, ≥ 5.00 for the second.

O=c1c2ccccc2nc(-c2ccccc2F)n1NCc1cccc(Cl)c1 [Example 18, 3-(3-chlorobenzylamino)-2-(2-fluorophenyl)quinazolin-4(3H)-one] and O=c1c2ccccc2nc(-c2ccccc2F)n1NCc1cccc(Br)c1 [Example 3, 3-(3-bromobenzylamino)-2-(2-fluorophenyl)quinazolin-4(3H)-one] cannot be ordered by pEC50: ≥ 5.00 for the first, ≥ 5.00 for the second.

COc1cc(-c2nc3ccccc3c(=O)n2NCc2ccc(Br)cc2)ccc1F [Example 72, 3-(4-bromobenzylamino)-2-(4-fluoro-3-methoxyphenyl)quinazolin-4(3H)-one] and COc1cc(-c2nc3ccccc3c(=O)n2NCc2ccc(Br)cc2)ccc1C [Example 65, 3-(4-bromobenzylamino)-2-(3-methoxy-4-methylphenyl)quinazolin-4(3H)-one] cannot be ordered by pEC50: ≥ 5.00 for the first, ≥ 5.00 for the second.

COc1ccc(-c2nc3ccccc3c(=O)n2NCc2ccc(Br)cc2)cc1O [Example 118, 3-(4-bromobenzylamino)-2-(3-hydroxy-4-methoxyphenyl)quinazolin-4(3H)-one] and COc1ccc(-c2nc3ccccc3c(=O)n2NCc2ccc(Cl)cc2)cc1O [Example 119, 3-(4-chlorobenzylamino)-2-(3-hydroxy-4-methoxyphenyl)quinazolin-4(3H)— one] cannot be ordered by pEC50: ≥ 5.00 for the first, ≥ 5.00 for the second.

O=c1c2ccccc2nc(-c2ccc(F)cc2)n1NCc1cc(C(F)(F)F)cc(C(F)(F)F)c1 [Example 91, 3-(3,5-bis(trifluoromethyl)benzylamino)-2-(4-fluorophenyl)quinazolin-4(3H)-one] and Cc1ccc2c(=O)n(NCc3ccc(C(F)(F)F)cc3)c(-c3ccc(F)cc3)nc2c1 [Example 82, 2-(4-fluorophenyl)-7-methyl-3-(4 (trifluoromethyl)benzylamino)quinazolin-4(3H)-one] cannot be ordered by pEC50: ≥ 5.00 for the first, < 5.00 for the second.

O=c1c2ccccc2nc(-c2cccc(OC(F)(F)F)c2)n1NCc1ccc(Cl)cc1 [Example 61, 3-(4-chlorobenzylamino)-2-(3-(trifluoromethoxy)phenyl)quinazolin-4(3H)-one] and O=c1c2ccccc2nc(-c2cccc(OC(F)(F)F)c2)n1NCc1ccc(Br)cc1 [Example 60, 3-(4-bromobenzylamino)-2-(3-(trifluoromethoxy)phenyl)quinazolin-4(3H)-one] cannot be ordered by pEC50: ≥ 5.00 for the first, ≥ 5.00 for the second.

Cc1ccc(CNn2c(-c3ccccc3F)nc3ccccc3c2=O)cc1 [Example 22, 2-(2-fluorophenyl)-3-(4-methylbenzylamino)quinazolin-4(3H)-one] and Cc1ccc2c(=O)n(NCc3ccc(Br)cc3)c(-c3ccccc3F)nc2c1 [Example 24, 3-(4-bromobenzylamino)-2-(2-fluorophenyl)-7-methylquinazolin-4(3H)-one] cannot be ordered by pEC50: ≥ 5.00 for the first, ≥ 5.00 for the second.

O=c1c2ccccc2nc(-c2ccco2)n1N(Cc1ccc(Br)cc1)Cc1ccc(Br)cc1 [Example 41, 3-(bis(4-bromobenzyl)amino)-2-(furan-2-yl)quinazolin-4(3H)-one] and O=c1c2ccccc2nc(-c2ccc3c(c2)OCO3)n1NCc1ccc(Br)cc1 [Example 63, 2-(benzo[d][1,3]dioxol-5-yl)-3-(4-bromobenzylamino)quinazolin-4(3H)-one] cannot be ordered by pEC50: ≥ 5.00 for the first, ≥ 5.00 for the second.

O=c1c2ccccc2nc(-c2cccs2)n1NCc1ccc(C(F)(F)F)cc1 [Example 87, 2-(thiophen-2-yl)-3-(4-(trifluoromethyl)benzylamino)quinazolin-4(3H)-one] and O=c1c2ccccc2nc(-c2cccs2)n1NCc1ccc(Br)cc1 [Example 86, 3-(4-bromobenzylamino)-2-(thiophen-2-yl)quinazolin-4(3H)-one] cannot be ordered by pEC50: ≥ 5.00 for the first, ≥ 5.00 for the second.

O=c1c2ccccc2nc(-c2ccc(Cl)cc2)n1NCc1ccc(C(F)(F)F)cc1 [Example 52, 2-(4-chlorophenyl)-3-(4-(trifluoromethyl)benzylamino)quinazolin-4(3H)-one] and O=c1c2ccccc2nc(-c2ccc(F)cc2)n1NCc1ccc(Cl)cc1 [Example 79, 3-(4-chlorobenzylamino)-2-(4-fluorophenyl)quinazolin-4(3H)-one] cannot be ordered by pEC50: ≥ 5.00 for the first, ≥ 5.00 for the second.

O=c1c2ccccc2nc(-c2ccccc2F)n1NCc1cccc(C(F)(F)F)c1 [Example 20, 2-(2-fluorophenyl)-3-(3-(trifluoromethyl)benzylamino)quinazolin-4(3H)-one] and O=c1c2ccc(C(F)(F)F)cc2nc(-c2ccccc2F)n1NCc1ccc(F)cc1F [Example 29, 3-(2,4-difluorobenzylamino)-2-(2-fluorophenyl)-7-(trifluoromethyl)quinazolin-4(3H)-one] cannot be ordered by pEC50: ≥ 5.00 for the first, < 5.00 for the second.

O=c1c2ccc(O)cc2nc(-c2ccc(F)cc2)n1NCc1ccc(Br)cc1 [Example 95, 3-(4-bromobenzylamino)-2-(4-fluorophenyl)-7-hydroxy quinazolin-4(3H)-one] and O=c1c2cccc(O)c2nc(-c2ccc(F)cc2)n1NCc1ccc(Br)cc1 [Example 113, 3-(4-bromobenzylamino)-2-(4-fluorophenyl)-8-hydroxyquinazolin-4(3H)-one] cannot be ordered by pEC50: ≥ 5.00 for the first, ≥ 5.00 for the second.

O=c1c2ccc(F)cc2nc(-c2ccc(F)cc2)n1NCc1ccc(Cl)cc1 [Example 108, 3-(4-chlorobenzylamino)-7-fluoro-2-(4-fluorophenyl)quinazolin-4(3H)-one] and O=c1c2ccccc2nc(-c2ccc(F)cc2)n1NCc1ccc(F)cc1F [Example 80, 3-(2,4-difluorobenzylamino)-2-(4-fluorophenyl)quinazolin-4(3H)-one] cannot be ordered by pEC50: ≥ 5.00 for the first, ≥ 5.00 for the second.

O=c1c2ccccc2nc(C2CCCCC2)n1NCc1ccc(Cl)cc1 [Example 45, 3-(4-chlorobenzylamino)-2-cyclohexylquinazolin-4(3H)-one] and O=c1c2ccccc2nc(C2CCCCC2)n1NCc1ccc(Br)cc1 [Example 44, 3-(4-bromobenzylamino)-2-cyclohexylquinazolin-4(3H)-one] cannot be ordered by pEC50: ≥ 5.00 for the first, ≥ 5.00 for the second.

Cc1cccc2c(=O)n(NCc3ccc(Br)cc3)c(-c3ccc(F)cc3)nc12 [Example 70, 3-(4-bromobenzylamino)-2-(4-fluorophenyl)-8-methylquinazolin-4(3H)-one] and COc1cccc2c(=O)n(NCc3ccc(Br)cc3)c(-c3ccc(F)cc3)nc12 [Example 76, 3-(4-Bromo-benzylamino)-2-(4-fluoro-phenyl)-8-methoxy-3H-quinazolin-4-one] cannot be ordered by pEC50: ≥ 5.00 for the first, ≥ 5.00 for the second.

COc1cc(-c2nc3ccccc3c(=O)n2NCc2ccc(F)c(F)c2)ccc1C [Example 69, 3-(3,4-difluorobenzylamino)-2-(3-methoxy-4-methylphenyl)quinazolin-4(3H)-one] and O=c1c2ccccc2nc(-c2cccc(Cl)c2)n1NCc1ccc(F)c(F)c1 [Example 50, 2-(3-chlorophenyl)-3-(3,4-difluorobenzylamino)quinazolin-4(3H)-one] cannot be ordered by pEC50: ≥ 5.00 for the first, ≥ 5.00 for the second.

COc1cc(-c2nc3ccccc3c(=O)n2NCc2ccc(Cl)cc2)ccc1F [Example 73, 3-(4-chlorobenzylamino)-2-(4-fluoro-3-methoxyphenyl)quinazolin-4(3H)-one] and O=c1c2ccccc2nc(-c2cccc(Cl)c2)n1NCc1ccc(Cl)cc1 [Example 48, 3-(4-chlorobenzylamino)-2-(3-chlorophenyl)quinazolin-4(3H)-one] cannot be ordered by pEC50: ≥ 5.00 for the first, ≥ 5.00 for the second.

In the case of O=c1c2ccccc2nc(-c2ccc(F)cc2)n1NCCc1cccc(Br)c1 [Example 84, 3-(3-bromophenethylamino)-2-(4-fluorophenyl)quinazolin-4(3H)-one], the pEC50 was < 5.00.
